PubChem BioAssay AID248 (DTP/NCI, 2004)
“And” between values parts separate entries of the source, which are not always exact repeats. Equal entries are not always repeated. Inconclusive results and toxic doses are left out. Cut-off read from the data, not from the text of the source: active = T/C of 150% or more; inactive = T/C below 125%.

Tested on: L1210 leukemia ip in BDF1 mice, survival T/C
Experiment: NCI In Vivo Anticancer Drug Screen. Data for tumor model L1210 Leukemia (intraperitoneal) in B6D2F1 (BDF1) mice
Details: endpoint: mean survival time, higher = longer survival
Method in brief: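 Read-out is survival time, reported as the treated-group measurement over the vehicle-control measurement.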

[1] = dose: 100.0 mg/kg/injection, schedule: Q01DX009 (ip), vehicle: Klucel (hydroxypropylcellulose) (HPC)
[2] = dose: 100.0 mg/kg/injection, schedule: Q04DX003 (ip), vehicle: Klucel (hydroxypropylcellulose) (HPC)
[3] = dose: 200.0 mg/kg/injection, schedule: Q01DX009 (ip), vehicle: Klucel (hydroxypropylcellulose) (HPC)
[4] = dose: 200.0 mg/kg/injection, schedule: Q04DX003 (ip), vehicle: Klucel (hydroxypropylcellulose) (HPC)
[5] = dose: 400.0 mg/kg/injection, schedule: Q01DX009 (ip), vehicle: Klucel (hydroxypropylcellulose) (HPC)
[6] = dose: 400.0 mg/kg/injection, schedule: Q04DX003 (ip), vehicle: Klucel (hydroxypropylcellulose) (HPC)
[7] = dose: 100.0 mg/kg/injection, schedule: Q01DX001 (ip), vehicle: carboxymethylcellulose (CMC)
[8] = dose: 200.0 mg/kg/injection, schedule: Q01DX001 (ip), vehicle: carboxymethylcellulose (CMC)
[9] = dose: 400.0 mg/kg/injection, schedule: Q01DX001 (ip), vehicle: carboxymethylcellulose (CMC)
[10] = dose: 100.0 mg/kg/injection, schedule: Q01DX001 (ip), vehicle: saline
[11] = dose: 200.0 mg/kg/injection, schedule: Q01DX001 (ip), vehicle: saline
[12] = dose: 400.0 mg/kg/injection, schedule: Q01DX001 (ip), vehicle: saline

Measured: T/C

CCC(=O)Nc1ccccc1
inactive: [1] 101 % of control | [2] 100 % of control | [3] 95 % of control | [4] 104 % of control | [5] 108 % of control | [6] 114 % of control

CCOC(=O)C(Cc1c[nH]c2ccccc12)[N+](=O)[O-] (stereo not drawn)
inactive: dose: 100.0 mg/kg/injection, schedule: Q04DX003 (sc), vehicle: olive oil, sesame oil, peanut oil 97 % of control | dose: 200.0 mg/kg/injection, schedule: Q04DX003 (sc), vehicle: olive oil, sesame oil, peanut oil 98 % of control | dose: 400.0 mg/kg/injection, schedule: Q04DX003 (sc), vehicle: olive oil, sesame oil, peanut oil 101 % of control

N#Cc1cc(Cl)cc(Cl)c1
inactive: [7] 98 % of control | [8] 104 % of control | [9] 93 % of control

CCOc1ccc(Nc2nc(=O)[nH]c3ccccc23)cc1CN(CCCl)CCCl
inactive: dose: 25.0 mg/kg/injection, schedule: Q04DX002 (ip), vehicle: saline 104 % of control | dose: 50.0 mg/kg/injection, schedule: Q04DX002 (ip), vehicle: saline 100 % of control | dose: 100.0 mg/kg/injection, schedule: Q04DX002 (ip), vehicle: saline 111 % of control | dose: 200.0 mg/kg/injection, schedule: Q04DX002 (ip), vehicle: saline 95 % of control and 111 % of control | dose: 400.0 mg/kg/injection, schedule: Q04DX002 (ip), vehicle: saline 95 % of control

COc1cc(CCN)ccc1OCc1ccccc1
inactive: dose: 25.0 mg/kg/injection, schedule: Q04DX003 (ip), vehicle: Klucel (hydroxypropylcellulose) (HPC) 97 % of control | dose: 50.0 mg/kg/injection, schedule: Q04DX003 (ip), vehicle: Klucel (hydroxypropylcellulose) (HPC) 101 % of control | dose: 100.0 mg/kg/injection, schedule: Q01DX001 (ip), vehicle: Klucel (hydroxypropylcellulose) (HPC) 96 % of control | [2] 104 % of control and 105 % of control | dose: 200.0 mg/kg/injection, schedule: Q01DX001 (ip), vehicle: Klucel (hydroxypropylcellulose) (HPC) 94 % of control

CCN(CC)c1ccc2nc3ccc(N(CC)CC)cc3[n+](-c3ccccc3)c2c1
inactive: dose: 3.0 mg/kg/injection, schedule: Q01DX009 (ip), vehicle: saline 111 % of control | dose: 6.0 mg/kg/injection, schedule: Q01DX009 (ip), vehicle: saline 115 % of control

CCCCNC(C)(C)C(SSSC(C)=O)c1ccco1 (stereo not drawn)
inactive: dose: 12.5 mg/kg/injection, schedule: Q01DX009 (ip), vehicle: saline with Tween-80 100 % of control | dose: 12.5 mg/kg/injection, schedule: Q04DX003 (ip), vehicle: saline with Tween-80 102 % of control | dose: 25.0 mg/kg/injection, schedule: Q01DX009 (ip), vehicle: saline with Tween-80 104 % of control | dose: 25.0 mg/kg/injection, schedule: Q04DX003 (ip), vehicle: saline with Tween-80 106 % of control | dose: 50.0 mg/kg/injection, schedule: Q01DX009 (ip), vehicle: saline with Tween-80 108 % of control | dose: 50.0 mg/kg/injection, schedule: Q04DX003 (ip), vehicle: saline with Tween-80 96 % of control | dose: 100.0 mg/kg/injection, schedule: Q04DX003 (ip), vehicle: saline with Tween-80 102 % of control

COC(=O)c1cccc2c1C1CCC2c2cccc(C(=O)OC)c21
inactive: dose: 100.0 mg/kg/injection, schedule: Q04DX002 (ip), vehicle: gum acacia 101 % of control | dose: 200.0 mg/kg/injection, schedule: Q04DX002 (ip), vehicle: gum acacia 96 % of control | dose: 400.0 mg/kg/injection, schedule: Q04DX002 (ip), vehicle: gum acacia 99 % of control

c1ccc(COC2NCCN2Cc2ccccc2)cc1 (stereo not drawn)
inactive: [10] 98 % of control | [11] 101 % of control | [12] 101 % of control

CCCCOC(=O)CC1CCCN1C (stereo not drawn)
inactive: dose: 100.0 mg/kg/injection, schedule: Q04DX003 (ip), vehicle: saline 110 % of control | dose: 200.0 mg/kg/injection, schedule: Q04DX003 (ip), vehicle: saline 101 % of control

CCCCCCCCCC(CCCCCCCC(=O)O)NC(C)=O (stereo not drawn)
inactive: dose: 50.0 mg/kg/injection, schedule: Q01DX001 (ip), vehicle: saline 97 % of control | [10] 94 % of control | [11] 94 % of control | [12] 94 % of control

CC(C)(CN=Cc1cccc(O)c1)N=Cc1cccc(O)c1
inactive: dose: 75.0 mg/kg/injection, schedule: Q01DX009 (ip), vehicle: DMSO 95 % of control | dose: 100.0 mg/kg/injection, schedule: Q01DX001 (ip), vehicle: DMSO 100 % of control | dose: 100.0 mg/kg/injection, schedule: Q04DX003 (ip), vehicle: DMSO 89 % of control | dose: 150.0 mg/kg/injection, schedule: Q01DX009 (ip), vehicle: DMSO 93 % of control | dose: 200.0 mg/kg/injection, schedule: Q01DX001 (ip), vehicle: DMSO 96 % of control | dose: 200.0 mg/kg/injection, schedule: Q04DX003 (ip), vehicle: DMSO 88 % of control | dose: 400.0 mg/kg/injection, schedule: Q01DX001 (ip), vehicle: DMSO 100 % of control | dose: 400.0 mg/kg/injection, schedule: Q04DX003 (ip), vehicle: DMSO 89 % of control

OC1(C2(O)CCC2)CCC1
inactive: dose: 50.0 mg/kg/injection, schedule: Q01DX001 (ip), vehicle: carboxymethylcellulose (CMC) 98 % of control | [7] 95 % of control | [8] 95 % of control | [9] 101 % of control

CNC(=O)N/N=C(C)\C=N\NC(=O)NC
inactive: dose: 75.0 mg/kg/injection, schedule: Q01DX001 (ip), vehicle: saline 97 % of control | dose: 150.0 mg/kg/injection, schedule: Q01DX001 (ip), vehicle: saline 108 % of control | dose: 300.0 mg/kg/injection, schedule: Q01DX001 (ip), vehicle: saline 92 % of control

Cc1ccc([P+](=O)O)cc1Cl
inactive: [10] 100 % of control | [11] 93 % of control | [12] 88 % of control

COC1C(O)C(C)OC(OC2CC3CCC4C(CCC5(C)C(C6=CC(=O)OC6)CCC45O)C3(C)C(OC(C)=O)C2)C1O (stereo not drawn) (tested in a mixture with another compound)
inactive: dose: 25.0 mg/kg/injection, schedule: Q01DX009 (sc), vehicle: steriod suspending solution 101 % of control

Cc1nnc2sc(C(=O)O)nn12
inactive: [10] 90 % of control | [11] 93 % of control | [12] 96 % of control

C=CCN(CC=C)S(=O)(=O)c1cccc(C(=O)O)c1
inactive: [2] 103 % of control | [4] 92 % of control | [6] 105 % of control

COc1ccc(NC(=O)Nc2ccccc2Cl)cc1
inactive: [1] 96 % of control | [2] 90 % of control | [3] 95 % of control | [4] 92 % of control | [5] 91 % of control | [6] 90 % of control

Nc1ccc(S(=O)(=O)c2cc(O)ccc2O)cc1
inactive: [7] 101 % of control | [8] 100 % of control | [9] 97 % of control

OCC1(c2ccccc2)OC1c1ccccc1 (stereo not drawn)
inactive: dose: 50.0 mg/kg/injection, schedule: Q01DX009 (ip), vehicle: Klucel (hydroxypropylcellulose) (HPC) 95 % of control | dose: 75.0 mg/kg/injection, schedule: Q04DX003 (ip), vehicle: Klucel (hydroxypropylcellulose) (HPC) 102 % of control | [1] 96 % of control | dose: 150.0 mg/kg/injection, schedule: Q04DX003 (ip), vehicle: Klucel (hydroxypropylcellulose) (HPC) 102 % of control | [3] 96 % of control | dose: 300.0 mg/kg/injection, schedule: Q04DX003 (ip), vehicle: Klucel (hydroxypropylcellulose) (HPC) 107 % of control
